Source: the NIST ThermoML archive (doi:10.1021/je5009679)
± gives the expanded uncertainty stated by the source.

Settings: Liquid; for viscosity: Concentric cylinders viscometry

CCCC[n+]1ccn(C)c1.O=S(=O)([N-]S(=O)(=O)C(F)(F)F)C(F)(F)F
101.33 kPa
Settings	viscosity [mPa·s]
293.15 K	63.41 ± 3
303.15 K	41.26 ± 1.9
313.15 K	28.46 ± 1.3
323.15 K	20.58 ± 0.96
333.15 K	15.47 ± 0.72
343.15 K	12 ± 0.56
353.15 K	9.562 ± 0.45
363.15 K	7.788 ± 0.36
373.15 K	6.469 ± 0.3

Settings	mass density [kg/m3]
293.15 K, 101.33 kPa, Vibrating tube method	1440.9 ± 1.3
303.15 K, 101.33 kPa, Vibrating tube method	1431.6 ± 1.3
311.8 K, 10000 kPa, Bellows volumetry	1430.7 ± 1.8
311.8 K, 20000 kPa, Bellows volumetry	1437.5 ± 1.8
311.8 K, 30000 kPa, Bellows volumetry	1444.6 ± 1.8
311.8 K, 40000 kPa, Bellows volumetry	1451.2 ± 1.8
311.8 K, 50000 kPa, Bellows volumetry	1457.5 ± 1.8
311.8 K, 60000 kPa, Bellows volumetry	1463.6 ± 1.8
311.8 K, 70000 kPa, Bellows volumetry	1469.5 ± 1.8
311.8 K, 80000 kPa, Bellows volumetry	1475.2 ± 1.8
311.8 K, 90000 kPa, Bellows volumetry	1480.5 ± 1.8
311.8 K, 100000 kPa, Bellows volumetry	1485.7 ± 1.8
311.8 K, 110000 kPa, Bellows volumetry	1490.9 ± 1.8
311.8 K, 120000 kPa, Bellows volumetry	1496 ± 1.8
311.8 K, 130000 kPa, Bellows volumetry	1500.9 ± 1.8
311.8 K, 140000 kPa, Bellows volumetry	1505.6 ± 1.8
311.8 K, 150000 kPa, Bellows volumetry	1510.2 ± 1.8
311.8 K, 160000 kPa, Bellows volumetry	1514.8 ± 1.8
311.8 K, 170000 kPa, Bellows volumetry	1519.3 ± 1.8
311.8 K, 180000 kPa, Bellows volumetry	1523.5 ± 1.8
311.8 K, 190000 kPa, Bellows volumetry	1527.7 ± 1.8
311.8 K, 200000 kPa, Bellows volumetry	1531.8 ± 1.8
313.15 K, 101.33 kPa, Vibrating tube method	1422.1 ± 1.3
323.15 K, 101.33 kPa, Vibrating tube method	1412.6 ± 1.3
331.9 K, 10000 kPa, Bellows volumetry	1412.5 ± 1.8
331.9 K, 20000 kPa, Bellows volumetry	1420.1 ± 1.8
331.9 K, 30000 kPa, Bellows volumetry	1427.4 ± 1.8
331.9 K, 40000 kPa, Bellows volumetry	1434.5 ± 1.8
331.9 K, 50000 kPa, Bellows volumetry	1441.1 ± 1.8
331.9 K, 60000 kPa, Bellows volumetry	1447.6 ± 1.8
331.9 K, 70000 kPa, Bellows volumetry	1453.6 ± 1.8
331.9 K, 80000 kPa, Bellows volumetry	1459.5 ± 1.8
331.9 K, 90000 kPa, Bellows volumetry	1464.9 ± 1.8
331.9 K, 100000 kPa, Bellows volumetry	1470.5 ± 1.8
331.9 K, 110000 kPa, Bellows volumetry	1476 ± 1.8
331.9 K, 120000 kPa, Bellows volumetry	1481.1 ± 1.8
331.9 K, 130000 kPa, Bellows volumetry	1486.2 ± 1.8
331.9 K, 140000 kPa, Bellows volumetry	1491.2 ± 1.8
331.9 K, 150000 kPa, Bellows volumetry	1495.9 ± 1.8
331.9 K, 160000 kPa, Bellows volumetry	1500.5 ± 1.8
331.9 K, 170000 kPa, Bellows volumetry	1505.2 ± 1.8
331.9 K, 180000 kPa, Bellows volumetry	1509.6 ± 1.8
331.9 K, 190000 kPa, Bellows volumetry	1513.9 ± 1.8
331.9 K, 200000 kPa, Bellows volumetry	1518.3 ± 1.8
333.15 K, 101.33 kPa, Vibrating tube method	1403.4 ± 1.3
343.15 K, 101.33 kPa, Vibrating tube method	1394 ± 1.3
352 K, 10000 kPa, Bellows volumetry	1394 ± 1.8
352 K, 20000 kPa, Bellows volumetry	1402.4 ± 1.8
352 K, 30000 kPa, Bellows volumetry	1410 ± 1.8
352 K, 40000 kPa, Bellows volumetry	1417.4 ± 1.8
352 K, 50000 kPa, Bellows volumetry	1424.3 ± 1.8
352 K, 60000 kPa, Bellows volumetry	1431.2 ± 1.8
352 K, 70000 kPa, Bellows volumetry	1437.5 ± 1.8
352 K, 80000 kPa, Bellows volumetry	1443.8 ± 1.8
352 K, 90000 kPa, Bellows volumetry	1449.5 ± 1.8
352 K, 100000 kPa, Bellows volumetry	1455.3 ± 1.8
352 K, 110000 kPa, Bellows volumetry	1460.8 ± 1.8
352 K, 120000 kPa, Bellows volumetry	1466.3 ± 1.8
352 K, 130000 kPa, Bellows volumetry	1471.5 ± 1.8
352 K, 140000 kPa, Bellows volumetry	1476.5 ± 1.8
352 K, 150000 kPa, Bellows volumetry	1481.4 ± 1.8
352 K, 160000 kPa, Bellows volumetry	1486.3 ± 1.8
352 K, 170000 kPa, Bellows volumetry	1491 ± 1.8
352 K, 180000 kPa, Bellows volumetry	1495.8 ± 1.8
352 K, 190000 kPa, Bellows volumetry	1500.2 ± 1.8
352 K, 200000 kPa, Bellows volumetry	1504.7 ± 1.8
353.15 K, 101.33 kPa, Vibrating tube method	1384.8 ± 1.3
363.15 K, 101.33 kPa, Vibrating tube method	1375.6 ± 1.3
372.2 K, 10000 kPa, Bellows volumetry	1376.1 ± 1.8
372.2 K, 20000 kPa, Bellows volumetry	1384.9 ± 1.8
372.2 K, 30000 kPa, Bellows volumetry	1393.3 ± 1.8
372.2 K, 40000 kPa, Bellows volumetry	1401.1 ± 1.8
372.2 K, 50000 kPa, Bellows volumetry	1408.4 ± 1.8
372.2 K, 60000 kPa, Bellows volumetry	1415.5 ± 1.8
372.2 K, 70000 kPa, Bellows volumetry	1422.1 ± 1.8
372.2 K, 80000 kPa, Bellows volumetry	1428.4 ± 1.8
372.2 K, 90000 kPa, Bellows volumetry	1434.4 ± 1.8
372.2 K, 100000 kPa, Bellows volumetry	1440.3 ± 1.8
372.2 K, 110000 kPa, Bellows volumetry	1446.2 ± 1.8
372.2 K, 120000 kPa, Bellows volumetry	1452 ± 1.8
372.2 K, 130000 kPa, Bellows volumetry	1457.4 ± 1.8
372.2 K, 140000 kPa, Bellows volumetry	1462.6 ± 1.8
372.2 K, 150000 kPa, Bellows volumetry	1467.8 ± 1.8
372.2 K, 160000 kPa, Bellows volumetry	1472.5 ± 1.8
372.2 K, 170000 kPa, Bellows volumetry	1477.5 ± 1.8
372.2 K, 180000 kPa, Bellows volumetry	1482.1 ± 1.8
372.2 K, 190000 kPa, Bellows volumetry	1487 ± 1.8
372.2 K, 200000 kPa, Bellows volumetry	1491.4 ± 1.8
373.15 K, 101.33 kPa, Vibrating tube method	1366.7 ± 1.3
392.4 K, 10000 kPa, Bellows volumetry	1358.5 ± 1.8
392.4 K, 20000 kPa, Bellows volumetry	1367.8 ± 1.8
392.4 K, 30000 kPa, Bellows volumetry	1376.7 ± 1.8
392.4 K, 40000 kPa, Bellows volumetry	1385 ± 1.8
392.4 K, 50000 kPa, Bellows volumetry	1392.8 ± 1.8
392.4 K, 60000 kPa, Bellows volumetry	1400.2 ± 1.7
392.4 K, 70000 kPa, Bellows volumetry	1407.2 ± 1.7
392.4 K, 80000 kPa, Bellows volumetry	1414 ± 1.7
392.4 K, 90000 kPa, Bellows volumetry	1420.7 ± 1.8
392.4 K, 100000 kPa, Bellows volumetry	1426.6 ± 1.8
392.4 K, 110000 kPa, Bellows volumetry	1432.6 ± 1.8
392.4 K, 120000 kPa, Bellows volumetry	1438.2 ± 1.8
392.4 K, 130000 kPa, Bellows volumetry	1443.8 ± 1.8
392.4 K, 140000 kPa, Bellows volumetry	1449.2 ± 1.8
392.4 K, 150000 kPa, Bellows volumetry	1454.4 ± 1.8
392.4 K, 160000 kPa, Bellows volumetry	1459.3 ± 1.8
392.4 K, 170000 kPa, Bellows volumetry	1464.5 ± 1.8
392.4 K, 180000 kPa, Bellows volumetry	1469.2 ± 1.8
392.4 K, 190000 kPa, Bellows volumetry	1474.1 ± 1.8
392.4 K, 200000 kPa, Bellows volumetry	1478.8 ± 1.8
412.1 K, 10000 kPa, Bellows volumetry	1341.1 ± 1.8
412.1 K, 20000 kPa, Bellows volumetry	1351 ± 1.8
412.1 K, 30000 kPa, Bellows volumetry	1360.4 ± 1.8
412.1 K, 40000 kPa, Bellows volumetry	1369.2 ± 1.8
412.1 K, 50000 kPa, Bellows volumetry	1377.5 ± 1.7
412.1 K, 60000 kPa, Bellows volumetry	1385.1 ± 1.7
412.1 K, 70000 kPa, Bellows volumetry	1392.6 ± 1.7
412.1 K, 80000 kPa, Bellows volumetry	1399.6 ± 1.7
412.1 K, 90000 kPa, Bellows volumetry	1406.1 ± 1.8
412.1 K, 100000 kPa, Bellows volumetry	1412.5 ± 1.8
412.1 K, 110000 kPa, Bellows volumetry	1418.8 ± 1.8
412.1 K, 120000 kPa, Bellows volumetry	1424.8 ± 1.8
412.1 K, 130000 kPa, Bellows volumetry	1430.5 ± 1.8
412.1 K, 140000 kPa, Bellows volumetry	1436.2 ± 1.8
412.1 K, 150000 kPa, Bellows volumetry	1441.4 ± 1.8
412.1 K, 160000 kPa, Bellows volumetry	1446.8 ± 1.8
412.1 K, 170000 kPa, Bellows volumetry	1451.9 ± 1.8
412.1 K, 180000 kPa, Bellows volumetry	1456.9 ± 1.8
412.1 K, 190000 kPa, Bellows volumetry	1461.6 ± 1.8
412.1 K, 200000 kPa, Bellows volumetry	1466.6 ± 1.8
